Broadly, the Ki is the dissociation constant of the complex between target and ligand, obtained from inhibition or displacement. A lower Ki goes with a stronger hold on the target. In general, IC50 refers to the concentration that gives 50% inhibition.

From US9340530B2, “Preparation and use of bicyclic himbacine derivatives as PAR-1 receptor antagonists” (Merck, Sharp & Dohme Corp., priority 2012, dated 2016) come the findings set out here.

Each structure is given as a SMILES string.

Experiment [1] has as its target thrombin receptor (PAR-1 receptor) (Homo sapiens (Human), UniProt P25116). Put plainly: High throughput thrombin receptor radioligand binding assay ([3H]haTRAP, platelet membranes). The following applies: [3H]haTRAP binding to platelet membranes. The protocol:
The following binding assays were used to determine the ability of the inventive compounds to inhibit the PAR-1 receptor.
A(pF-F)R(ChA)(hR)(I2—Y)—NH2 (1.03 mg) and 10% Pd/C (5.07 mg) were suspended in DMF (250 μl) and diisopropylethylamine (10 μL). The vessel was attached to the tritium line, frozen in liquid nitrogen and evacuated. Tritium gas (342 mCi) was then added to the flask, which was stirred at room temperature for 2 hours. At the completion of the reaction, the excess tritium was removed and the reacted peptide solution was diluted with DMF (0.5 ml) and filtered to remove the catalyst. The collected DMF solution of the crude peptide was diluted with water and freeze dried to remove the labile tritium. The solid peptide was redissolved in water and the freeze drying process repeated. The tritiated peptide ([^3H]haTRAP) was dissolved in 0.5 ml of 0.1% aqueous TFA and purified by HPLC using the following conditions: column, Vydac™ C18, 25 cm×9.4 mm I.D.; mobile phase, (A) 0.1% TFA in water, (B) 0.1% TFA in CH3CN; gradient, (A/B) from 100/0 to 40/60 over 30 min; flow rate, 5 ml/min; detection, UV at 215 nm. The radiochemical purity of [^3H]haTRAP was 99% as analyzed by HPLC. A batch of 14.9 mCi at a specific activity of 18.4 Ci/mmol was obtained.
Platelet membranes were prepared using a modification of the method of Natarajan et al. (Natarajan et al, Int. J. Peptide Protein Res. 45:145-151 (1995)) from 20 units of platelet concentrates obtained from the North Jersey Blood Center (East Orange, N.J.) within 48 hours of collection. All steps were carried out at 4° C. under approved biohazard safety conditions. Platelets were centrifuged at 100×g for 20 minutes at 4° C. to remove red cells. The supernatants were decanted and centrifuged at 3000×g for 15 minutes to pellet platelets. Platelets were re-suspended in 10 mM Tris-HCl, pH 7.5, 150 mM NaCl, 5 mM EDTA, to a total volume of 200 ml and centrifuged at 4400×G for 10 minutes. This step was repeated two additional times. […] Protein concentration was determined by a Lowry assay (Lowry et al., J. Biol. Chem., 193:265-275 (1951)). […]

For a further experiment, the target named is PAR1 (Homo sapiens (Human), UniProt P25116). Put plainly: Par-1 FLIPR assay (calcium, HEK 293 cells, PAR1 activating peptide). The class given is cell-based. The following applies: PAR1 selective receptor-activating peptide at 80% activation. As to the method:
HEK 293 Cells were grown in media containing DMEM, 10% FBS pen/strep/L-Glutamine and non-essential amino acids. The cells were plated in 384-well PDL coated plates at 12000 cells/well and incubated overnight at 37° C./5% CO2. Media was then removed from the cells, which were then incubated with buffer (Hank's containing HEPES and Chaps) containing FLIPR calcium-5 dye, made with buffer containing probenecid, for 60 minutes at 37° C. Varying concentrations of compound in a final concentration of 5% DMSO were then added to the cells and incubated at 25° C. for 30 minutes. […] The FLIPR reads at an excitation wavelength of 480 nm and an emission wavelength of 535 nm, and performs 60 scans over a 1-2 min reading time. The data were analyzed by taking the peak signal over a portion of the range of the 60 scans and dividing this signal by the minimum signal for that same range.

PAR1, sequence (P25116 22-425): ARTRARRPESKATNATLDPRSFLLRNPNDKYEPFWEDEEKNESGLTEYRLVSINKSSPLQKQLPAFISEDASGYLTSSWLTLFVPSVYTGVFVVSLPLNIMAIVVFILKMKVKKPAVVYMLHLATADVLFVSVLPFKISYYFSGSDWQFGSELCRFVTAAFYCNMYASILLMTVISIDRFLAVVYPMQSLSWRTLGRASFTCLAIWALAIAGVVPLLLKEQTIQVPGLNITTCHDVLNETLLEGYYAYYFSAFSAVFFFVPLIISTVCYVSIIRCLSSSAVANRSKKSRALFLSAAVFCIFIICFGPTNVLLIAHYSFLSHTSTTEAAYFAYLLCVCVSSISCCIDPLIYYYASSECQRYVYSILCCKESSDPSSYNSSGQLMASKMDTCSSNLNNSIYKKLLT
thrombin receptor (PAR-1 receptor), sequence (P25116 22-425): as above

Turning to `C[C@H]1OC(=O)[C@]2(O)CC(F)(F)[C@@H](C)[C@H](/C=C/c3ccc(-c4cccc(F)c4)cn3)[C@H]12` [Example 10], the Ki in experiment [1] worked out at 3 nM. The IC50 on PAR1 is 8.1 nM.
For `C[C@H]1OC(=O)[C@]2(C(=O)NCCO)CC(F)(F)[C@@H](C)[C@H](/C=C/c3ccc(-c4cccc(F)c4)cn3)[C@H]12` [Example 13], in that order: 3 nM and 17 nM.
On the same counts, the results for `C[C@H]1OC(=O)C2CC(F)(F)[C@@H](C)[C@H](/C=C/c3ccc(-c4cccc(F)c4)cn3)C21` (stereo partly shown) [Example 2] are 3 nM and 5.01 nM.
As for `CC1[C@H](/C=C/c2ccc(-c3ccccc3C#N)cn2)C2[C@@H](C)OC(=O)[C@]2(C(O)c2cocn2)CC1(F)F` (stereo partly shown) [Example 22a], the half-maximal inhibitory concentration (IC50) on PAR1 came out at 1.9 nM.
Turning to `C[C@H]1OC(=O)[C@]2(C(O)c3cscn3)CC(F)(F)[C@@H](C)[C@H](/C=C/c3ccc(-c4ccccc4C#N)cn3)[C@H]12` (stereo partly shown) [Example 20b], the IC50 on PAR1 is 1.2 nM.
Consider `CC1[C@H](/C=C/c2ccc(-c3ccccc3C#N)cn2)C2[C@@H](C)OC(=O)[C@]2(NCc2cccnc2)CC1(F)F` (stereo partly shown) [Example 38], for which, at PAR1, the IC50 is 4.7 nM.
For the molecule `COC(=O)[C@@]12CC(F)(F)[C@@H](C)[C@H](/C=C/c3ccc(-c4cccc(F)c4)cn3)[C@@H]1[C@@H](C)OC2=O` [Example 11], the IC50 at PAR1 was 3.4 nM.
Still for that read-out and setting: as for `CC1[C@H](/C=C/c2ccc(-c3ccccc3C#N)cn2)C2[C@@H](C)OC(=O)[C@]2(NCc2nccs2)CC1(F)F` (stereo partly shown) [Example 39], the figure is 2.2 nM; as for `C[C@H]1OC(=O)[C@]2(C(O)c3ccccn3)CC(F)(F)[C@@H](C)[C@H](/C=C/c3ccc(-c4ccccc4C#N)cn3)[C@H]12` (stereo partly shown) [Example 19], 3 nM; as for `C[C@H]1OC(=O)[C@]2(C(O)c3ncco3)CC(F)(F)[C@@H](C)[C@H](/C=C/c3ccc(-c4ccccc4C#N)cn3)[C@H]12` (single isomer, unassigned) [Example 23b], 1.2 nM.
Same read-out and setting: in the case of `Cc1nnc(C[C@@]23CC(F)(F)[C@@H](C)[C@H](/C=C/c4ccc(-c5ccccc5Cl)cn4)[C@@H]2[C@@H](C)OC3=O)o1` [Example 28] it was 0.9 nM; in that of `C[C@H]1OC(=O)[C@]2(Br)CC(F)(F)[C@@H](C)[C@H](/C=C/c3ccc(-c4ccccc4C#N)cn3)[C@H]12` [Example 71], 4.8 nM; in that of `C[C@H]1OC(=O)[C@]2(Cc3nnn(C)n3)CC(F)(F)[C@@H](C)[C@H](/C=C/c3ccc(-c4ccccc4Cl)cn3)C12` (stereo partly shown) [Example 29a], 2.1 nM.
